As a reminder, the EC50 is the concentration needed to bring the measured effect to its halfway point. One may read the Emax as the maximal effect, on the per cent scale that the assay sets.

This assay deals with T1, human mAChR M1 (Homo sapiens, UniProt P11229).
T1 sequence (P11229 1-460): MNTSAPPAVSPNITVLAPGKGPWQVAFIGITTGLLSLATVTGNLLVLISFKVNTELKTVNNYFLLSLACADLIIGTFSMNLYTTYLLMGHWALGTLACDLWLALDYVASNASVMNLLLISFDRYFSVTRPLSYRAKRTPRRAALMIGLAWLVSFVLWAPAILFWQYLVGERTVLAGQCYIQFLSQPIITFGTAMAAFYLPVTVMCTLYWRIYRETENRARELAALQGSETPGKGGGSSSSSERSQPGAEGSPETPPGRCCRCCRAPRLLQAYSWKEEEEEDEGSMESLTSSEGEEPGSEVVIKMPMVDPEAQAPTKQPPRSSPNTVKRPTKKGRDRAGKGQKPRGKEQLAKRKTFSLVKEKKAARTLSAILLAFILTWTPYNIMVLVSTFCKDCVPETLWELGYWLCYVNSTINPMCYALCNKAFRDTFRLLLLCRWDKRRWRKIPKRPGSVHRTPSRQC
Nature of the assay: mAChR M1 cell-based functional assay: calcium mobilization, positive allosteric modulator mode (increase in EC20 acetylcholine response). The settings on record: Table 2, human M1; for EC50: read-out: Human M1 EC50; for Emax: read-out: Human M1 Emax (%). From the text: a. Cell Lines Expressing Muscarinic Acetylcholine Receptors
Chinese hamster ovary (CHO-K1) cells stably expressing rat (r)M1 were purchased from the American Type Culture Collection and cultured according to their indicated protocol. CHO cells stably expressing human (h)M2, hM3, and hM5 were described previously (Levey, et al., 1991); hMi and hM4 cDNAs were purchased from Missouri S&T cDNA Resource; rM4 cDNA was provided by T. I. Bonner (National Institutes of Health, Bethesda, Md.). rM2 and rM3 were cloned from a rat brain cDNA library and sequence verified. hMi, rM2, rM3, hM4, and rM4 cDNAs were used to stably transfect CHO-K1 cells purchased from the American Type Culture Collection using Lipofectamine2000. To make stable rM2, hM2, rM3, hM4, and rM4 cell lines for use in calcium mobilization assays, these cells also were stably transfected with a chimeric G-protein (Gqi5) (provided by B. R. Conklin, University of California, San Francisco) using Lipofectamine 2000. rMi, hMi, rM3, hM3, rM5, and hM5 cells were grown in Ham's F-12 medium containing 10% heat-inactivated fetal bovine serum (FBS), 20 mM HEPES, and 50 μg/mL G418 sulfate. rM2-Gqi5, hM2-Gqi5, and hM4-Gqi5 cells were grown in the same medium also containing 500 μg/mL Hygromycin B. Stable rM4-Gqi5 cells were grown in DMEM containing 10% heat-inactivated FBS, 20 mM HEPES, 400 μg/mL G418 sulfate, and 500 μg/mL Hygromycin B.
b. Cell-Based Functional Assay of Muscarinic Acetylcholine Receptor Activity
For high throughput measurement of agonist-evoked increases in intracellular calcium, CHO-K1 cells stably expressing muscarinic receptors were plated in growth medium lacking G418 and hygromycin at 15,000 cells/20 μL/well in Greiner 384-well black-walled, tissue culture (TC)-treated, clear-bottom plates (VWR). Cells were incubated overnight at 37° C. and 5% CO2. The next day, cells were washed using an ELX 405 (BioTek) with four washes (80 μL) of assay buffer then aspirated to 20 μL. Next, 20 μL of 16 μM Fluo-4/acetoxymethyl ester (Invitrogen, Carlsbad, Calif.) prepared as a 2.3 mM stock in DMSO and mixed in a 1:1 ratio with 10% (w/v) Pluronic F-127 and diluted in assay buffer was added to the wells and the cell plates were incubated for 50 min at 37° C. and 5% CO2. Dye was removed by washing with the ELX 405 (four […], washes of assay buffer) then aspirated to 20 μL. Compound master plates were formatted in an 11 point CRC format (1:3 dilutions) in 100% DMSO with a starting concentration of 10 mM using the BRAVO liquid handler (Agilent). Test compound CRCs were then transferred to daughter plates (240 nL) using the Echo acoustic plate reformatter (Labcyte, Sunnyvale, Calif.) and then diluted into assay buffer (40 μL) to a 2× stock using a Thermo Fisher Combi (Thermo Fisher Scientific, Waltham, Mass.).
Calcium flux was measured using the Functional Drug Screening System (FDSS) 6000 (Hamamatsu Corporation, Tokyo, Japan) as an increase in the fluorescent static ratio. Compounds were applied to cells (20 μL, 2×) using the automated system of the FDSS 6000 at 4 s into the 300 s protocol and the data were collected at 1 Hz. At 144 s into the 300s protocol, 10 μL of an EC20 concentration of the muscarinic receptor agonist acetylcholine was added (5×), followed by the addition of 12 μL an EC80 concentration of acetylcholine at the 230 s time point (5×). Agonist activity was analyzed as a concentration-dependent increase in calcium mobilization upon compound addition. Positive allosteric modulator activity was analyzed as a concentration-dependent increase in the EC20 acetylcholine response. Antagonist activity was analyzed as a concentration-dependent decrease in the EC80 acetylcholine response. Concentration-response curves were generated using a four-parameter logistical equation in XLfit curve fitting software (IDBS, Bridgewater, N.J.) for Excel (Microsoft, Redmond, Wash.) or Prism (GraphPad Software, Inc., San Diego, Calif.).

As for `Cc1nc(-c2ccc(Cc3cc(C(=O)NC4CC5(COC5)C4)nc4ccsc34)cc2)cs1` [Compound 178, 7-[[4-(2-methylthiazol-4-yl)phenyl]methyl]-N-(2-oxaspiro[3.3]heptan-6-yl)thieno[3,2-b]pyridine-5-carboxamide], the EC50 was 0.652 µM and the Emax is 86%.
Regarding `Cc1ccc(Cc2cc(C(=O)NC3CCOCC3)nc3c(C)csc23)cn1` [Compound 102, 3-methyl-7-[(6-methyl-3-pyridyl)methyl]-N-tetrahydropyran-4-yl-thieno[3,2-b]pyridine-5-carboxamide], the EC50 stood at 2.7 µM and the Emax was 82.5%.
As to `O=C(NCC1CCO1)c1cc(Cc2ccc(-n3cccn3)cc2)c2sccc2n1` (stereo not shown) [Compound 284, N-(oxetan-2-ylmethyl)-7-[(4-pyrazol-1-ylphenyl)methyl]thieno[3,2-b]pyridine-5-carboxamide], the EC50 was 0.0677 µM and the Emax stood at 66.9%.
For `O=C(NC1CCC(F)(F)CC1)c1cc(Cc2ccc(-c3nccs3)cc2)c2sccc2n1` [Compound 385, N-(4,4-difluorocyclohexyl)-7-[(4-thiazol-2-ylphenyl)methyl]thieno[3,2-b]pyridine-5-carboxamide] the same measures were greater than 10 µM and 41.1%.
As to `Cc1nc(-c2ccc(Cc3cc(C(=O)N[C@@H]4CCOC4)nc4ccsc34)cc2)cs1` [Compound 183, 7-[[4-(2-methylthiazol-4-yl)phenyl]methyl]-N-[(3R)-tetrahydrofuran-3-yl]thieno[3,2-b]pyridine-5-carboxamide], the EC50 came out at 2.53 µM and the Emax came out at 67.3%.
In the case of `COCCNC(=O)c1cc(Cc2ccc(-n3cccn3)cc2)c2sccc2n1` [Compound 429, N-(2-methoxyethyl)-7-[(4-pyrazol-1-ylphenyl)methyl]thieno[3,2-b]pyridine-5-carboxamide], the EC50 worked out at 0.597 µM and the Emax stood at 72.7%.
Taken in the same sequence, the figures for `Cn1cc(-c2ccc(Cc3cc(C(=O)N[C@@H]4CCC[C@H]4O)nc4ccsc34)cc2)nn1` [Compound 149, N-[(1R,2R)-2-hydroxycyclopentyl]-7-[[4-(1-methyltriazol-4-yl)phenyl]methyl]thieno[3,2-b]pyridine-5-carboxamide] were 0.00984 µM and 85%.
Turning to `O=C(NC1CCCNC1=O)c1cc(Cc2ccc(-n3cccn3)cc2)c2sccc2n1` (stereo not shown) [Compound 78, N-(2-oxo-3-piperidyl)-7-[(4-pyrazol-1-ylphenyl)methyl]thieno[3,2-b]pyridine-5-carboxamide], the EC50 stood at 0.31 µM and the Emax is 87.2%.
Regarding `Cn1ccc2nc(C(=O)NC3CC4(COC4)C3)cc(Cc3ccc(-n4cccn4)cc3)c21` [Compound 449, 1-Methyl-N-(2-oxaspiro[3.3]heptan-6-yl)-7-[(4-pyrazol-1-ylphenyl)methyl]pyrrolo[3,2-b]pyridine-5-carboxamide], the EC50 is 0.157 µM and the Emax was determined as 73.1%.
With `O=C(NCC1CCOCC1)c1cc(Cc2ccc(-n3cccn3)cc2)c2sccc2n1` [Compound 288, 7-[(4-pyrazol-1-ylphenyl)methyl]-N-(tetrahydropyran-4-ylmethyl)thieno[3,2-b]pyridine-5-carboxamide], the EC50 is 0.0974 µM and the Emax came to 74.4%.
For the compound `Cc1csc2c(Cc3ccc(-n4cccn4)cc3)cc(C(=O)NC3CC4(COC4)C3)nc12` [Compound 315, 3-methyl-N-(2-oxaspiro[3.3]heptan-6-yl)-7-[(4-pyrazol-1-ylphenyl)methyl]thieno[3,2-b]pyridine-5-carboxamide], the EC50 turned out to be 0.475 µM and the Emax stood at 82.3%.
Consider `Cn1cc(-c2ccc(Cc3cc(C(=O)NC4CCOC(C)(C)C4)nc4ccsc34)cn2)cn1` (stereo not shown) [Compound 336, N-(2,2-dimethyltetrahydropyran-4-yl)-7-[[6-(1-methylpyrazol-4-yl)-3-pyridyl]methyl]thieno[3,2-b]pyridine-5-carboxamide], for which the EC50 was 0.0643 µM and the Emax came out at 58.4%.
Taken in the same sequence, the figures for `Cc1ncc(Cc2cc(C(=O)N[C@@H]3COCC[C@H]3O)nc3ccsc23)cn1` [Compound 129, N-[(3R,4R)-4-hydroxytetrahydropyran-3-yl]-7-[(2-methylpyrimidin-5-yl)methyl]thieno[3,2-b]pyridine-5-carboxamide] were greater than 10 µM and 51.5%.
Take `O=C(N[C@@H]1CCCCC[C@H]1O)c1cc(Cc2ccc(-n3cccn3)cc2)c2sccc2n1` [Compound 77, N-[(1R,2R)-2-hydroxycycloheptyl]-7-[(4-pyrazol-1-ylphenyl)methyl]thieno[3,2-b]pyridine-5-carboxamide]: the EC50 was found to be 0.136 µM and the Emax turned out to be 84.8%.
Take `Cn1cc(-c2ccc(Cc3cc(C(=O)NC[C@@H]4CCCO4)nc4ccsc34)cn2)cn1` [Compound 349, 7-[[6-(1-methylpyrazol-4-yl)-3-pyridyl]methyl]-N-[[(2S)-tetrahydrofuran-2-yl]methyl]thieno[3,2-b]pyridine-5-carboxamide]: the EC50 came to 0.0254 µM and the Emax was determined as 89.8%.
In the case of `O=C(N[C@H]1CCOC1)c1cc(Cc2ccc(-c3cscn3)cc2)c2sccc2n1` [Compound 208, N-[(3S)-tetrahydrofuran-3-yl]-7-[(4-thiazol-4-ylphenyl)methyl]thieno[3,2-b]pyridine-5-carboxamide], the EC50 stood at 1.88 µM and the Emax turned out to be 80.3%.
In the case of `O=C(NC1CCN2CCCC12)c1cc(Cc2ccc(-c3cscn3)cc2)c2sccc2n1` (stereo not shown) [Compound 220, N-(hexahydro-1H-pyrrolizin-1-yl)-7-[(4-thiazol-4-ylphenyl)methyl]thieno[3,2-b]pyridine-5-carboxamide], the EC50 worked out at 1.28 µM and the Emax is 80.6%.
Consider `O=C(N[C@H]1CC[C@@H]1O)c1cc(Cc2ccc(C(F)(F)F)nc2)c2sccc2n1` [Compound 87, N-[(1S,2S)-2-hydroxycyclobutyl]-7-[[6-(trifluoromethyl)-3-pyridyl]methyl]thieno[3,2-b]pyridine-5-carboxamide], for which the EC50 was 3.13 µM and the Emax was found to be 84.9%.
For `COCCNC(=O)c1cc(Cc2ccc(-c3cnn(C)c3)nc2)c2sccc2n1` [Compound 342, N-(2-methoxyethyl)-7-[[6-(1-methylpyrazol-4-yl)-3-pyridyl]methyl]thieno[3,2-b]pyridine-5-carboxamide] the same measures were 0.289 µM and 89.5%.
For the compound `O=C(N[C@H]1CCOC1)c1cc(Cc2ccc(-n3cccn3)cc2)c2sccc2n1` [Compound 278, 7-[(4-pyrazol-1-ylphenyl)methyl]-N-[(3S)-tetrahydrofuran-3-yl]thieno[3,2-b]pyridine-5-carboxamide], the EC50 was 0.485 µM and the Emax turned out to be 73.4%.

These data come from patent US11111251B2, “Positive allosteric modulators of the muscarinic acetylcholine receptor M1” (Vanderbilt University, priority 2016, dated 2021).
